Experiments:
[1] = tested on: PC3; assay: SRB in vitro cytotoxicity assay, PC3 prostate cancer cells; assay type: cell-based; conditions: Homo sapiens, PC-3, 48 h drug exposure, read-out: In vitro anticancer activity GI50, Prostate PC3
Source text: (§1) Compounds 4a-4z and 4aa-4ae have been evaluated for their in vitro cytotoxicity in selected human cancer cell lines i.e., colon (Colo205), lung (Hop-62, A549), cervix (SiHa), prostate (PC3), oral (KB, DWD, Gurav), Ovarian (A-2780) and breast (MCF7, Zr-75-1) origin by employing the sulforhodamine B (SRB) assay method (Skehn, P.; Storeng, R.; Scudiero, A.; Monks, J.; MeMohan, D.; Vistica, D.; Jonathan, T. W.; Bokesch, H.; Kenney, S.; Boyd M. R. J. Natl. Cancer Inst. 1990, 82, 1107).
(§2) The synthesized compounds have been evaluated for their in vitro cytotoxicity in human cancer cell lines. A protocol of 48 h continuous drug exposure has been used and a sulforhodamine B (SRB) protein assay has been used to estimate cell viability or growth. The cell lines were grown in DMEM medium containing 10% fetal bovine serum and 2 mM L-glutamine and were inoculated into 96 well microtiter plates in […] at plating densities depending on the doubling time of individual cell lines. The microliter plates were incubated at 37_C, 5% CO2, 95% air, and 100% relative humidity for 24 h prior to addition of experimental drugs. Aliquots of […] of the drug dilutions were added to the appropriate microliter wells already containing […] of cells, suiting in the required final drug concentrations. For each compound four concentrations (0.1, 1, 10 and 100 uM) were evaluated and each was done in triplicate wells. Plates were incubated further for 48 h and assay was terminated by the addition of […] of cold trichloro acetic acid (TCA) (final concentration, 10% TCA) and incubated for 60 min at 4_C. The plates were washed five times with tap water and airdried. Sulforhodamine B (SRB) solution ([…]) at 0.4% (w/v) in 1% acetic acid was added to each of the cells, and plates were incubated for 20 min at room temperature. The residual dye was removed by washing five times with 1% acetic acid. The plates were airdried. Bound stain was subsequently eluted with 10 mM trizma base, and the absorbance was read on an ELISA plate reader at a wavelength of 540 nm with 690 nm reference wavelengths. Percent growth was calculated on a plate by plate basis for test wells relative to control wells. The above determinations were repeated three times. Percentage growth was expressed as the (ratio of average absorbance of the test well to the average absorbance of the control wells)*100. Growth inhibition of 50% (GI50) was calculated from [(Ti−Tz)/(C−Tz)]*100 ¼ 50, which is the drug concentration resulting in a 50% reduction in the net protein increase (as measured by SRB staining) in control cells during the drug incubation. Where, Tz ¼ Optical density at time zero, OD of control ¼ C, and OD of test growth in the presence of drug ¼ Ti.

[2] = tested on: Gurav; assay: SRB in vitro cytotoxicity assay, Gurav oral cancer cells; assay type: cell-based; conditions: Homo sapiens, 48 h drug exposure, read-out: In vitro anticancer activity GI50, Oral Gurav
Source text: as §1, §2

[3] = tested on: DWD; assay: SRB in vitro cytotoxicity assay, DWD oral cancer cells; assay type: cell-based; conditions: Homo sapiens, 48 h drug exposure, read-out: In vitro anticancer activity GI50, Oral DWD
Source text: as §1, §2

[4] = tested on: MCF7; assay: SRB in vitro cytotoxicity assay, MCF7 breast cancer cells; assay type: cell-based; conditions: Homo sapiens, 48 h drug exposure, read-out: In vitro anticancer activity GI50, Breast MCF7
Source text: as §1, §2

[5] = tested on: A-2780; assay: SRB in vitro cytotoxicity assay, A-2780 ovarian cancer cells; assay type: cell-based; conditions: Homo sapiens, A2780, 48 h drug exposure, read-out: In vitro anticancer activity GI50, Ovarian A-2780
Source text: as §1, §2

[6] = tested on: Colo 205; assay: SRB in vitro cytotoxicity assay, Colo 205 colon cancer cells; assay type: cell-based; conditions: Homo sapiens, 48 h drug exposure, read-out: In vitro anticancer activity GI50, Colon Colo 205
Source text: as §1, §2

[7] = tested on: SiHa; assay: SRB in vitro cytotoxicity assay, SiHa cervix cancer cells; assay type: cell-based; conditions: Homo sapiens, 48 h drug exposure, read-out: In vitro anticancer activity GI50, Cervix SiHa
Source text: as §1, §2

[8] = tested on: Zr-75-1; assay: SRB in vitro cytotoxicity assay, Zr-75-1 breast cancer cells; assay type: cell-based; conditions: Homo sapiens, 48 h drug exposure, read-out: In vitro anticancer activity GI50, Breast Zr-75-1
Source text: as §1, §2

[9] = tested on: A-549; assay: SRB in vitro cytotoxicity assay, A-549 lung cancer cells; assay type: cell-based; conditions: Homo sapiens, A549, 48 h drug exposure, read-out: In vitro anticancer activity GI50, Lung A-549
Source text: as §1, §2

[10] = tested on: Hop62; assay: SRB in vitro cytotoxicity assay, Hop62 lung cancer cells; assay type: cell-based; conditions: Homo sapiens, HOP-62, 48 h drug exposure, read-out: In vitro anticancer activity GI50, Lung Hop62
Source text: as §1, §2

[11] = tested on: KB; assay: SRB in vitro cytotoxicity assay, KB oral cancer cells; assay type: cell-based; conditions: Homo sapiens, 48 h drug exposure, read-out: In vitro anticancer activity GI50, Oral KB
Source text: as §1, §2

| SMILES | GI50 [1] [nM] | GI50 [2] [nM] | GI50 [3] [nM] | GI50 [4] [nM] | GI50 [5] [nM] | GI50 [6] [nM] | GI50 [7] [nM] | GI50 [8] [nM] | GI50 [9] [nM] | GI50 [10] [nM] | GI50 [11] [nM] | melting point [°C] |
| --- | --- | --- | --- | --- | --- | --- | --- | --- | --- | --- | --- | --- |
| COc1cccc2c1C(=O)c1c(O)c3c(c(O)c1C2=O)C[C@@](O)(C(=O)CO)C[C@@H]3O[C@H]1C[C@H](N)[C@H](O)[C@H](C)O1 [ADR, adriamycin, reference compound] | 160 | < 100 | < 100 | 130 | < 100 | < 100 | 160 | 110 | < 100 | 150 | 130 |  |
| COc1cc(C2C3=C(COC3=O)Nc3ccc4cn[nH]c4c32)cc(OC)c1OC (stereo not drawn) [Compound 4n, 10-(3,4,5-trimethoxyphenyl)-6,7,9,10-tetrahydro-1H-furo[3,4-b]pyrazolo[3,4-f]quinolin-9-one] | 190 | 160 | < 100 | 190 | 140 | 2700 | 190 | 160 | < 100 | 2100 | 2100 |  |
| COc1ccc(C2C3=C(COC3=O)Nc3ccc4ncsc4c32)cc1O (stereo not drawn) [Compound 4u, 10-(3-hydroxy-4-methoxyphenyl)-6,7,9,10-tetrahydrofuro[3,4-b][1,3]thiazolo[5,4-f]quinolin-9-one] | 2100 | 190 | 2000 | 180 | 180 | 150 | 2000 | 160 | < 100 | 2300 | 180 | 327 to 329 |
| COc1cc(C2C3=C(COC3=O)Nc3ccc4nc(C)sc4c32)ccc1O (stereo not drawn) [Compound 4v, 10-(4-hydroxy-3-methoxyphenyl)-2-methyl-6,7,9,10-tetrahydrofuro[3,4-b][1,3]thiazolo[5,4-f]quinolin-9-one] | 160 | 180 | < 100 | 160 | 120 |  | 180 | 170 | < 100 | 170 | 2000 | 293 to 295 |
